The values that follow come from patent publication US6639121B1, “Inducible cancer model to study the molecular basis of host tumor cell interactions in vivo” (Dana-Farber Cancer Institute, Inc., priority 1999, dated 2003).

In assay [1] the test system is Tyr/Tet-RAS INK4a−/− melanoma cell lines. Nature of the assay: SCID explant tumorigenicity of melanoma cell lines. Format: in vivo, mouse. The settings on record: SCID mice treated with doxycycline. The text has this:
To this end, we first assessed the impact of doxycycline withdrawal in different Tyr/Tet-RAS INK4a−/− tumor derived cell lines in cell culture. […] The derivative melanoma cell lines remained doxycycline-responsive as shown by their strict doxycycline-dependency for tumorigenic potential in SCID mice. Specifically, subcutaneous injection of purified Tyr/Tet-RAS INK4a−/− melanoma cell lines yielded tumors in SCID mice treated with doxycycline with 100% efficiency, while those mice not receiving doxycycline remained tumor-free after many months of observation (FIG. 3A). […] On the other hand, the data is also consistent with the possibility that tumor regression following doxycycline withdrawal may reflect a continued requirement for RAS in promoting and sustaining non-cell-autonomous tumor-host interactions that are essential for tumor growth and maintenance.
Primary tumors, derivative cell lines and SCID explant tumors. Transgenic mice were fed doxycycline drinking water (2 mg/ml sucrose water) and observed for spontaneous tumor development. Primary tumors were adapted to culture by mechanical mincing with sterilized razor blades and brief trypsinization and maintained on RPMI media containing 10% serum and supplemented with doxycycline (2 μg/ml media)^4. […]

Assay [2] has as its system Tyr/Tet-RAS INK4a−/− mice. Nature of the assay: Doxycycline-induced melanoma development in transgenic mice. Format: in vivo, mouse. The settings on record: doxycycline in the drinking water from weaning. The text has this:
To develop a cancer model in which dominantly acting oncoproteins are somatically regulated in vivo, transgenic mouse lines harboring the reverse tetracycline transactivator^2 under the control of the tyrosinase gene promoter-enhancer elements (designated Tyr-rtTA) and another containing the H-RAS^V12G open reading frame driven by a minimal promoter containing multimerized tet-operons.^2,3 (designated Tet-RAS) were inter-crossed with INK4a+/− mice to generate cohorts of single and double transgenic mice (designated Tyr/Tet-RAS) homozygous null for INK4a. Upon weaning, a subset of single and double transgenic INK4a −/− mice were administered doxycycline in the drinking water^4. In the doxycycline-treated group, 10 of 40 Tyr/Tet-RAS INK4a−/− mice developed melanomas with an average latency of 60 days (FIG. 1A). […] The Tyr/Tet-RAS INK4a−/− melanomas shared all of the macroscopic features of the constitutive Tyr-RAS INK4a−/− melanomas 5, manifesting as amelanotic, invasive and highly vascular tumors—features reminiscent of nodular-type melanoma in humans (for example, see FIGS. 2A&B).
Production of the transgenic mice. The reverse tetracycline transactivator (rtTA) is a 1050 bp EcoRI/BamHI fragment isolated from pUHD172-1neo^2. The Tet promoter contains a XhoI/EcoRI fragment of CMV minimal promoter linked to the tet operator sequences^2. […]

As to `C[C@H]1c2cccc(O)c2C(=O)C2=C(O)[C@]3(O)C(=O)C(C(N)=O)=C(O)[C@@H](N(C)C)[C@@H]3[C@@H](O)[C@@H]21` [doxycycline], in assay [1], the “efficiency of tumor formation after subcutaneous injection” value is 100%. In assay [2], the “average latency of melanoma development” value turned out to be 60 days.
